In the supplement of paper PMC10307832:

Tests used:
Experiment in all cases: relative viability (nuclei count vs DMSO), 5 days (fraction); higher = more cells survive
Trametinib + Navitoclax = compound: CC(=O)Nc1cccc(-n2c(=O)n(C3CC3)c(=O)c3c(Nc4ccc(I)cc4F)n(C)c(=O)c(C)c32)c1 [Trametinib] + CC1(C)CCC(c2ccc(Cl)cc2)=C(CN2CCN(c3ccc(C(=O)NS(=O)(=O)c4ccc(N[C@H](CCN5CCOCC5)CSc5ccccc5)c(S(=O)(=O)C(F)(F)F)c4)cc3)CC2)C1 [Navitoclax] (partner 0.5 µM)
Method in brief: (§1)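 Lung cancer cell lines in 1536-well plates got either a single drug or a fixed anchor-drug dose together with five library-drug doses (not always all listed) in √10 steps, by pin tool, on the day after seeding. Nuclei were counted after 5 days, and relative viability is the treated-to-vehicle ratio of nuclei counts. Values are medians of duplicate plates.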

[1] = compound: CN1C=C(C2=CC=CC=C21)/C=C\3/C4=C(C=CC=N4)NC3=O + CC(C)C[C@H](NC(=O)[C@H](Cc1ccccc1)NC(=O)c1cnccn1)B(O)O [Bortezomib] (partner 0.002 µM)
Method in brief: as §1

[2] = compound: CN1C=C(C2=CC=CC=C21)/C=C\3/C4=C(C=CC=N4)NC3=O + CC1(C)CCC(c2ccc(Cl)cc2)=C(CN2CCN(c3ccc(C(=O)NS(=O)(=O)c4ccc(N[C@H](CCN5CCOCC5)CSc5ccccc5)c(S(=O)(=O)C(F)(F)F)c4)cc3)CC2)C1 [Navitoclax] (partner 0.5 µM)
Method in brief: as §1

[3] = compound: CN1C=C(C2=CC=CC=C21)/C=C\3/C4=C(C=CC=N4)NC3=O + C[C@]1(O)C[C@@H](c2nc(-c3ccc4ccc(-c5ccccc5)nc4c3)c3c(N)nccn32)C1 [Linsitinib] (partner 1 µM)
Method in brief: as §1

| Cell Line | relative viability (Trametinib + Navitoclax; first compound 0.0025 µM) | relative viability (Trametinib + Navitoclax; first compound 0.007906 µM) | relative viability (Trametinib + Navitoclax; first compound 0.025 µM) | relative viability (Trametinib + Navitoclax; first compound 0.07906 µM) | relative viability (Trametinib + Navitoclax; first compound 0.25 µM) | relative viability ([1]; first compound 0.02 µM) | relative viability ([1]; first compound 0.06325 µM) | relative viability ([1]; first compound 0.2 µM) | relative viability ([1]; first compound 0.6325 µM) | relative viability ([1]; first compound 2 µM) | relative viability ([2]; first compound 0.02 µM) | relative viability ([2]; first compound 0.06325 µM) | relative viability ([2]; first compound 0.2 µM) | relative viability ([2]; first compound 0.6325 µM) | relative viability ([2]; first compound 2 µM) | relative viability ([3]; first compound 0.02 µM) | relative viability ([3]; first compound 0.06325 µM) | relative viability ([3]; first compound 0.2 µM) | relative viability ([3]; first compound 0.6325 µM) | relative viability ([3]; first compound 2 µM) |
| --- | --- | --- | --- | --- | --- | --- | --- | --- | --- | --- | --- | --- | --- | --- | --- | --- | --- | --- | --- | --- |
| NCI-H1651 | 1.02 | 0.943 | 0.933 | 0.844 | 0.778 | 0.811 | 1.03 | 0.931 | 0.885 | 1.06 | 0.955 | 0.969 | 1.24 | 1.05 | 1.15 | 0.958 | 0.989 | 1.03 | 1.06 | 1.05 |
| H3255 | 0.468 | 0.316 | 0.251 | 0.161 | 0.18 | 0.935 | 0.843 | 0.704 | 0.701 | 0.655 | 0.547 | 0.484 | 0.422 | 0.439 | 0.425 | 1.06 | 0.989 | 0.945 | 0.816 | 1.11 |
| Calu-6 | 0.601 | 0.295 | 0.177 | 0.129 | 0.127 | 0.985 | 0.923 | 0.87 | 0.946 | 1.04 | 0.804 | 0.772 | 0.746 | 0.908 | 0.859 | 0.926 | 0.903 | 0.919 | 0.975 | 0.915 |
| NCI-H650 | – | – | – | – | – | 0.702 | 0.859 | – | 0.725 | 0.879 | – | – | – | – | – | 0.91 | 0.955 | – | 0.677 | 0.807 |
| NCI-H460 | 1.08 | 0.981 | 0.727 | 0.277 | 0.0346 | 1.23 | 1.1 | 1.07 | – | 1.14 | 1.27 | 1.21 | 1.39 | – | 1.43 | 0.8 | 0.838 | 0.789 | – | 0.906 |
| NCI-H2228 | 0.782 | 0.803 | 0.706 | 0.626 | 0.548 | 0.882 | 0.834 | – | 0.887 | 1.19 | 1.22 | 0.796 | – | 0.67 | 0.812 | 0.53 | 0.463 | – | 0.603 | 0.759 |
| NCI-H2085 | 1.07 | 0.9 | 0.924 | 0.878 | 0.81 | 0.993 | 1.07 | 0.995 | 1.07 | 1.04 | 1.04 | 1.15 | 1.19 | 1.22 | 1.18 | 0.867 | 0.825 | 0.867 | 0.866 | 1.02 |
| HCC-366 | 0.977 | 0.926 | 0.7 | 0.531 | 0.275 | 0.892 | 0.985 | 1.08 | 1.16 | 1.08 | 0.945 | 0.994 | 1.13 | 1.07 | 0.986 | 0.616 | 0.566 | 0.656 | 0.575 | 0.51 |
| EPLC-272H | 0.962 | 0.914 | 0.455 | 0.709 | 0.359 | 0.959 | 0.704 | – | 0.918 | 0.873 | 1.37 | 0.988 | – | 1.27 | 0.944 | 1.54 | 1.12 | – | 1.31 | 1.23 |
| LCLC-103H | – | – | – | – | – | 0.951 | 0.984 | 0.994 | 1.22 | 1.11 | – | – | – | – | – | 1.13 | 1.13 | 1.07 | 1.13 | 1.11 |
| NCI-H1650 | 0.94 | 0.857 | 0.816 | 0.473 | 0.35 | 0.189 | 0.19 | 0.2 | 0.19 | 0.222 | 0.901 | 0.984 | 0.927 | 0.918 | 1.19 | – | – | – | – | – |
| LK-2 | 0.745 | 0.897 | 0.767 | 0.946 | 0.368 | – | – | – | – | – | – | 0.683 | 0.638 | 0.726 | 1.04 | 0.365 | 0.333 | – | 0.474 | 0.504 |
| ChaGo-K-1 | 1.07 | 0.803 | 1.08 | 0.508 | 0.556 | 0.902 | 0.94 | – | 0.987 | 0.979 | 0.816 | 0.939 | – | 0.902 | 0.801 | – | – | – | – | – |
| NCI-H358 | – | – | – | – | – | – | – | – | – | – | – | – | – | – | – | 0.632 | 0.643 | 0.881 | 0.795 | 0.686 |
| A549 | 1.12 | 0.81 | 0.464 | 0.281 | 0.0636 | – | – | – | – | – | 1.36 | 1.27 | 1.15 | 1.24 | 1.15 | 0.596 | 0.512 | – | 0.543 | 0.586 |
| NCI-H1563 | – | – | – | – | – | 1.05 | 0.827 | 0.753 | 0.838 | 0.852 | – | – | – | – | – | 1.24 | 1.17 | 1.11 | 1.17 | 1.26 |
| NCI-H1395 | 1.17 | 1.01 | 1.27 | 1.14 | 0.685 | – | – | – | – | – | 1.08 | 0.967 | – | 1.09 | 1.11 | 0.977 | 1.11 | – | 1.15 | 0.945 |
| NCI-H1944 | 0.916 | 0.71 | 0.544 | 0.664 | 0.49 | – | – | – | – | – | 1.11 | 1.01 | – | 1.09 | 1.13 | 1.19 | 1.18 | – | 1.32 | 1.23 |
| ABC-1 | – | – | – | – | – | 0.368 | 0.257 | 0.285 | 0.299 | 0.372 | – | – | – | – | – | 0.797 | 0.704 | 0.604 | 0.729 | 0.712 |
